The target in test [1] is T1, CCK-2 receptor (Homo sapiens, UniProt P32239).
T1 sequence (P32239 1-447): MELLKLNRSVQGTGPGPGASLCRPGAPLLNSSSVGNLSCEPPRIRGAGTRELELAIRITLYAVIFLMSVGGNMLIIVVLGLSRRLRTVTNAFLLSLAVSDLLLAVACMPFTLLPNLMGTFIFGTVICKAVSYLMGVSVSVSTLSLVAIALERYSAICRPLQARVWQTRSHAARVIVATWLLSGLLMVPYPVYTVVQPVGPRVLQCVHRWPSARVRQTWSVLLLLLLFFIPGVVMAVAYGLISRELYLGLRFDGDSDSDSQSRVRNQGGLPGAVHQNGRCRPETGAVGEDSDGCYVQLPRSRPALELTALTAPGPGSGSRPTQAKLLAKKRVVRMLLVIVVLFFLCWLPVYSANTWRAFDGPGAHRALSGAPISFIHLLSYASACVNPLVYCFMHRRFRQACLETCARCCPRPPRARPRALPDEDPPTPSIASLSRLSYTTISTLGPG
Put plainly: [125I]-BH-CCK8 displacement, CCK-2 receptor on Jurkat cells. In kind it is binding. As to the method:
Non-specific binding was evaluated with […] of unlabelled CCK8. Incubation was stopped by adding 2 ml of ice-cold PBS containing 2% bovine serum albumin. After centrifugation, supernatants were removed and the radioactivity bound to the cell membranes was measured in a γ-counter (LKB, Wallac, Finland).

Test [2] has as its system Ggly receptor. The test can be described thus: [125I]-Ggly binding to the Ggly receptor on IMGE-5 cells. Set-up: species or system mice. As for the experimental part:
[^125I]-Ggly binding assays were carried out by previously described methods (Yang et al, 2001). Briefly, 5×10^5 IMGE-5 cells/well were seeded in 6-well plates and grown at 33° C. for 24 hours. The cells were then serum starved and shifted to 39° C. for 24 h. […] Cells were then washed three times in ice-cold PBS and lysed with 1 M NaOH, and the amount of radioactivity bound was measured in a γ-counter.

Test [3] concerns IMGE-5 cells. The test can be described thus: IMGE-5 cell proliferation, [3H]-thymidine incorporation. The test is classed as cell-based, mice. Conditions: IMGE cells, thymidine uptake; best fit at saturating concentration. As for the experimental part:
In some cases cell proliferation was also measured by [^3H]-thymidine incorporation as described previously (Oiry et al., 2000). Briefly, IMGE-5 cells (10^5/well) were seeded in 24-well plates in medium containing 10% FBS and 1 unit/ml γ-interferon. On the next day cells were serum starved and shifted to 39° C. for 24 hr. Cells were then incubated with or without various compounds at 39° C. for 17 h in medium supplemented with 0.2% bovine serum albumin only. Cells were incubated with 0.5 μCi of [^3H] thymidine in the same medium at 39° C. for 4 h, washed twice with PBS (2.7 mM KCl, 142 mM NaCl, 1.5 mM KH2PO4, 10 mM Na2HPO4, pH 6.95) containing 0.2% bovine serum albumin and incubated at 4° C. for 30 min with 5% trichloroacetic acid. Finally cells were washed with 95% ethanol to remove unincorporated [^3H] thymidine, and lysed with 1 M NaOH. Lysates were transferred to counting vials and neutralized with 1M HCl. The radioactivity of each lysate was counted in a β-counter after the addition of 10 ml of Pico-fluor 40 solution (Packard, Meriden, Conn.).
In some experiments IMGE-5 cells were seeded in a 96-well plate at a density of 3-5×10^3 cells/well in.DMEM containing 10% FBS, and cultured at 33° C.. On the following day, the cells were serum-starved at 33° C. for 24 h. […] The cells were cultured at 39° C. for 24 h, and then harvested using a NUNC cell harvester. The amount of ^3H-thymidine incorporated through DNA synthesis was detected with a β-counter (Packard, Meriden, Conn.). […]
(Incorporation of labelled thymidine or its analogues reports DNA synthesis.)

Test [4] deals with IMGE-5 gastric epithelial cells. The test can be described thus: Ggly-stimulated inositol phosphate production in IMGE-5 cells. The test is classed as cell-based, mice. As for the experimental part: Intracellular inositol phosphate production was determined as described previously (Qian et al, 1993). IMGE-5 cells (10^5 cells/ml) were plated in 24-multiwell culture plates in DMEM supplemented with 10% FBS, 200 IU/ml penicillin and 200 μg/ml streptomycin. 24 h later, cells were incubated with DMEM supplemented with antibiotics and Myo-[2-^3H]inositol (2.5 μCi/well) and shifted to 39° C. for 16 h. Cells were then washed with pre-warmed DMEM and incubated (20-30 minutes, 37° C.) with DMEM supplemented with 20 mM LiCl. Loaded cells were then washed in 1 ml of IP buffer (135 mM NaCl, 20 mM N-(2-hydroxyethyl)piperazine-N′-(2-ethanesulfonic acid), 2 mM CaCl2, 1.2 mM MgSO4, 1 mM ethylene glycol-bis(2-aminoethylether)-N,N,N′,N′-tetraacetic acid, 10 mM LiCl, and 0.5% bovine serum albumin, pH 7.45) and incubated with or without agonist in a final volume of 0.5 ml of IP buffer. After 1-h incubation at 37° C., the reaction was stopped by removing the incubation medium and adding 1 ml of a mixture of ethanol/HCl (2000:1; v/v). One ml of each aliquot was applied to a column containing 1.6 ml of a 1:2 (v/v) Dowex AG-1-X8 anion exchange resin in distilled water. […] The radioactivity of each eluate was counted after addition of Complete phase combining system solution (Amersham, UK). […]
Ggly-stimulated inositol phosphate production was measured in HT29 human colorectal carcinoma cells.

The conditions of test [5]: read-out: Kd for binding of ferric ions to Ggly; pH 4.0; taken from Baldwin et al. (2001); cited from earlier work.

pKd: −log10 of the molar value.

A word on the pKd: it is the Kd on a negative log10 scale, so that one unit is a factor of ten.

In the case of `CSCC[C@H](NC(=O)[C@H](Cc1c[nH]c2ccccc12)NC(=O)CNC(=O)[C@H](Cc1ccc(O)cc1)NC(=O)[C@H](C)NC(=O)[C@H](CCC(=O)O)NC(=O)[C@H](CCC(=O)O)NC(=O)[C@H](CCC(=O)O)NC(=O)[C@H](CCC(=O)O)NC(=O)[C@H](CCC(=O)O)NC(=O)[C@H](CC(C)C)NC(=O)[C@H](Cc1c[nH]c2ccccc12)NC(=O)[C@@H]1CCCN1C(=O)CNC(=O)[C@@H]1CCC(=O)N1)C(=O)N[C@@H](CC(=O)O)C(=O)N[C@@H](Cc1ccccc1)C(N)=O` [Gamide], the “% Maximum Binding (Jurkat)” value is 100.0 ± 3.1% in test [1] (binding in the absence of competitor, fitted, mean ± S.E.); 99.0 ± 0.4% in test [1] (presence and absence of 1 μM DFO). Further, in test [1] (single experiment, presence and absence of 1 μM DFO), the “Ordinate intercept, FIG. 24B” value came to 99.6%.
Regarding `[Bi+3]` [bismuth ions], the “Inhibition of [125I]-Ggly binding” value is on record as 50% in test [2] (2 moles Bi3+/mole Ggly) and “complete inhibition” in test [2] (8 or 32 moles Bi3+/mole Ggly).
For the compound “Ggly: glycine-extended gastrin17, 18 amino acid non-amidated gastrin, SEQ ID NO:4, residues 55-72 of progastrin (XGPWLEEEEEAYGWMDFG; (1)..(1) pyroglutamate; listed as Homo sapiens)”, the “S (%), maximum % stimulation” value in test [3] was 37.3%. In addition, the “Ggly stimulation of inositol phosphate production compared to the control” value in test [4] worked out at 110%. For the same compound, the pKd in test [5] is 6.22.

Source of the values: patent publication US20070031511A1, “Method of treatment” (priority 2003, published 2007).
